Laboratory results as given in ChEMBL document CHEMBL1201862, “PubChem BioAssay data set” (2004).
Calls of active or inactive are those of the source.

Legend:
Streptokinase A = molecular target: T1, Streptokinase A (Streptococcus pyogenes serotype M1, UniProt P10520); assay: viability-normalized secreted streptokinase activity reduction – plasminogen activation absorbance, OD405, dose response (AID 1914); assay type: functional, Streptococcus pyogenes M1 GAS;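 also: secreted streptokinase activity via plasminogen activation per viability signal from cell pellet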
T1 sequence (P10520 whole entry): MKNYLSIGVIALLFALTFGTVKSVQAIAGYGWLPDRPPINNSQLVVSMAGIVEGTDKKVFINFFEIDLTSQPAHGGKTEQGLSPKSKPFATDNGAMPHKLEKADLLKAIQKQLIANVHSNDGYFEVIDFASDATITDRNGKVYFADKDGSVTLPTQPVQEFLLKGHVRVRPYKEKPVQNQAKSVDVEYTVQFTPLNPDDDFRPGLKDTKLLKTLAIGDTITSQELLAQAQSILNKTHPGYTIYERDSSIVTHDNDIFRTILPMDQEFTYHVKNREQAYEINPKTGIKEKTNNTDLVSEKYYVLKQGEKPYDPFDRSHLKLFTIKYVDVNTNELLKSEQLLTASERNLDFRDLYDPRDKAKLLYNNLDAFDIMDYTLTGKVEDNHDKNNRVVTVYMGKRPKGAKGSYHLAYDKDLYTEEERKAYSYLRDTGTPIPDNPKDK

[1] = molecular target: T2, Sentrin-specific protease 6 (Homo sapiens, UniProt Q9GZR1); assay type: functional;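 also: Luminescence-based dose-response confirmatory assay of SENP6 inhibition, following up an ultra-high-throughput screen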
T2 sequence (Q9GZR1 whole entry): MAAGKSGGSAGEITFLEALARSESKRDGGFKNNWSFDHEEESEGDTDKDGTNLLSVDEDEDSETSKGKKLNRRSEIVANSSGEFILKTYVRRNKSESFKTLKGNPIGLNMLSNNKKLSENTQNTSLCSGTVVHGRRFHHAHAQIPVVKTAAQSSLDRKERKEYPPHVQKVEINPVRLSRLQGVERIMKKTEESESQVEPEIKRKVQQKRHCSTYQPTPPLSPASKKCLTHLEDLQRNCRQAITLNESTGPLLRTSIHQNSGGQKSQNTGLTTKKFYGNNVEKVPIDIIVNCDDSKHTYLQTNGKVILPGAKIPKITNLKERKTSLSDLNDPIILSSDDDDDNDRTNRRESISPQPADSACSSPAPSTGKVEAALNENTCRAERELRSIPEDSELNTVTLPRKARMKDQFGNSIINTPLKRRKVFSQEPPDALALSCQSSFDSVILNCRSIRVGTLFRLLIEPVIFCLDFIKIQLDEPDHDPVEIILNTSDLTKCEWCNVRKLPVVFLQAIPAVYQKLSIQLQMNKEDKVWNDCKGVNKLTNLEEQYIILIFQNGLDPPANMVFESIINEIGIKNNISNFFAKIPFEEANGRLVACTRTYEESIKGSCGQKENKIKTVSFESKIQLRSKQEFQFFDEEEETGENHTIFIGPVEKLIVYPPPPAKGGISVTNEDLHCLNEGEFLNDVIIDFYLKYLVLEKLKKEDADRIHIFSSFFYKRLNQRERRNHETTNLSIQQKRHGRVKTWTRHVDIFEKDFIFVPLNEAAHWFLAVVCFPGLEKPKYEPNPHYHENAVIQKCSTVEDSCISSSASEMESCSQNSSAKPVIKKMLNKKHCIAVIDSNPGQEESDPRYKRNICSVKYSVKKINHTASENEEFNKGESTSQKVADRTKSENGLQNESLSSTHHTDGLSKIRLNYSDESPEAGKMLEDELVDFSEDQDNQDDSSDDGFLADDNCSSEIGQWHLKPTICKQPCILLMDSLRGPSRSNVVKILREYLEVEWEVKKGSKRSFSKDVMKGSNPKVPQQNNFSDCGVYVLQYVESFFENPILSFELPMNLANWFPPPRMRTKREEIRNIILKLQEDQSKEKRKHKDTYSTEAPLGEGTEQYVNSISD

[2] = molecular target: T3, Sentrin-specific protease 7 (Homo sapiens, UniProt Q9BQF6); assay type: functional;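 also: Luminescence-based dose-response confirmation of ultra-high-throughput screening hits, measuring inhibition of SENP7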
T3 sequence (Q9BQF6 whole entry): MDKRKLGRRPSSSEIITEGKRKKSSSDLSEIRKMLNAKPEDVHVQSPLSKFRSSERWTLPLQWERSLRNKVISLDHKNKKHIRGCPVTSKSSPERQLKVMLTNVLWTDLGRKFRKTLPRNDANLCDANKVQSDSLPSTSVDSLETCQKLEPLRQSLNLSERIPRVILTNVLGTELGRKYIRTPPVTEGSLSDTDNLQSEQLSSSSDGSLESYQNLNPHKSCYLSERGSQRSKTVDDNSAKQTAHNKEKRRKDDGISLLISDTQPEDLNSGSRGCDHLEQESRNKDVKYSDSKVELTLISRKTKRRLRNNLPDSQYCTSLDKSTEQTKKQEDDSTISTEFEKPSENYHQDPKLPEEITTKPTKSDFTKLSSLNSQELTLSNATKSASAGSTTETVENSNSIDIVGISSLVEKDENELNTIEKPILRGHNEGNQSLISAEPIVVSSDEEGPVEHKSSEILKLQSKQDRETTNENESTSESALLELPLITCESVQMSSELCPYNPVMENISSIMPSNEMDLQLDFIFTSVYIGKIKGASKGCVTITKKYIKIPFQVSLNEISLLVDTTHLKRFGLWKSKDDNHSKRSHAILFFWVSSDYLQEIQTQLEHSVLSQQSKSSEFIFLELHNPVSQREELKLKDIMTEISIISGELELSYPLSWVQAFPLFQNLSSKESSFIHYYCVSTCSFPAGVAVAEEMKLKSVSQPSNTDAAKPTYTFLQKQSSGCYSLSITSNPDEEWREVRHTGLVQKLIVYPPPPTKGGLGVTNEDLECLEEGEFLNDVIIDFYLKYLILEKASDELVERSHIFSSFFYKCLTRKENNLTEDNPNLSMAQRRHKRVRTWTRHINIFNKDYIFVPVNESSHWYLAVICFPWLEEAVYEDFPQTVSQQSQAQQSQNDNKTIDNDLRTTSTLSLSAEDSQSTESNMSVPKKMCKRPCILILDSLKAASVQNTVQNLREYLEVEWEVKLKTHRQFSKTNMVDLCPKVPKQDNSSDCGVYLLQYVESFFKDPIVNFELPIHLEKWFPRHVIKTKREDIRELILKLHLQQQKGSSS

[3] = test system: Streptococcus sp. 'group A'; assay: Streptococcus pyogenes SK(-)GAS viability under kanamycin – luminescence, BacTiterGlo, confirmation, counter-screen for streptokinase expression inhibitor project, dose response (AID 1900); assay type: functional, organism-based
Streptococcus = assay: GAS UMAA2166 growth inhibition – luminescence, BacTiterGlo, counter-screen for streptokinase expression inhibitor project, dose response (AID 1915); assay type: functional, organism-based;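 also: potency for reduction of bacterial viability or growth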
Caspase-3 = molecular target: T4, Caspase-3 (Homo sapiens, UniProt P42574); assay type: functional;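 also: Dose-response selectivity test against caspase-3 for candidate inhibitors of sentrin-specific proteases (SENPs)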
T4 sequence (P42574 whole entry): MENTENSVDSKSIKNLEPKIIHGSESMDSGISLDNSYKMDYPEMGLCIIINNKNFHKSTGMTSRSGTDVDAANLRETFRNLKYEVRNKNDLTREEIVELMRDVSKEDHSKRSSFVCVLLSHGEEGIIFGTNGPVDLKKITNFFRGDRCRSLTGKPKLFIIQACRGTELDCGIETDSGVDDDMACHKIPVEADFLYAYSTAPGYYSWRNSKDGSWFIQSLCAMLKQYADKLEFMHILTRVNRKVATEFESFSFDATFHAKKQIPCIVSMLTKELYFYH

[4] = molecular target: T5, Sentrin-specific protease 8 (Homo sapiens, UniProt Q96LD8); assay type: functional;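 also: luminescence read-out of SENP8 inhibition, dose-response confirmation following an ultra-high-throughput screen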
T5 sequence (Q96LD8 whole entry): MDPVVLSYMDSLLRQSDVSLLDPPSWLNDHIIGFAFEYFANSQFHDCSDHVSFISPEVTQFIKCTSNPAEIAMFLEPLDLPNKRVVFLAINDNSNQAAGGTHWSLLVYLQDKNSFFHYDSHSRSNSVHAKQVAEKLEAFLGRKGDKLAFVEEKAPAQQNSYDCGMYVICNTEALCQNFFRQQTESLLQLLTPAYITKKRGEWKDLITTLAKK

[5] = molecular target: T6, Eukaryotic translation initiation factor 2-alpha kinase 3 (Homo sapiens, UniProt Q9NZJ5); assay: Dose response cell-based high-throughput screening assay to measure PERK inhibition. [Related pubchem assays: 1416 ]; assay type: functional
T6 sequence (Q9NZJ5 whole entry): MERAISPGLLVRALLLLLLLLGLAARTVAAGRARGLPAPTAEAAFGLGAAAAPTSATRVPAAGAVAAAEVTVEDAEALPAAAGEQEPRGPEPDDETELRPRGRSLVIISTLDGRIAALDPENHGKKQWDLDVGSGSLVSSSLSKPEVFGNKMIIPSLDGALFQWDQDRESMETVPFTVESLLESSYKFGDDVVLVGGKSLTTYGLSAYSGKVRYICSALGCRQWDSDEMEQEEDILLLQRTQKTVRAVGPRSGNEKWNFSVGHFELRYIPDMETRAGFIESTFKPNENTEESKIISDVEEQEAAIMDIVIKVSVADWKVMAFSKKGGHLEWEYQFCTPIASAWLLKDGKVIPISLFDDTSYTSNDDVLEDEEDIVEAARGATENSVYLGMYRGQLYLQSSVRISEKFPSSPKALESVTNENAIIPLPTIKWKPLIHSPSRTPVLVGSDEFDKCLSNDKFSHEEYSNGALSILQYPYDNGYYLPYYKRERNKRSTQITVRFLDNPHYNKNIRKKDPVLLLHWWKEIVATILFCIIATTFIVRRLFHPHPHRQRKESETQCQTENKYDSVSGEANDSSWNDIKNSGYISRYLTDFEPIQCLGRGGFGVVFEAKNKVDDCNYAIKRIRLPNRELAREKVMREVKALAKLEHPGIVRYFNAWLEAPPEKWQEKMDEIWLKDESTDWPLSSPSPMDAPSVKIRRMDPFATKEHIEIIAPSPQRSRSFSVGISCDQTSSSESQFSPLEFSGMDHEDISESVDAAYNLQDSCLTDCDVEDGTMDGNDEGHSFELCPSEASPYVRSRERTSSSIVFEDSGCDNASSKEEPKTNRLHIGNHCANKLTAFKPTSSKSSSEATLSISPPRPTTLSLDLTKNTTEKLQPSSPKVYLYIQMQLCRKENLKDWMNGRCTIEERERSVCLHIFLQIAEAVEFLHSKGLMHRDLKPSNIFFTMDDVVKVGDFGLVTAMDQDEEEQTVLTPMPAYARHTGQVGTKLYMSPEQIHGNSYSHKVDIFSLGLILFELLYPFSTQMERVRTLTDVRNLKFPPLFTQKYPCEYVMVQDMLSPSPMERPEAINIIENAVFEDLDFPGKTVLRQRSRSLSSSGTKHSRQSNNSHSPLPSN

[6] = molecular target: T6, Eukaryotic translation initiation factor 2-alpha kinase 3; assay: Counterscreen assay for PERK inhibitors: Dose response cell-based high throughput screening assay to measure inhibition of PERK at 6 hours. [Related pubchem assays: 1522, 1416 ]; assay type: functional
Nonstructural protein 1 = Nonstructural protein 1 (Influenza A virus, UniProt Q194T2); assay type: functional, Influenza A virus (A/California/07/2009(H1N1))
[7] = NIH-3T3 fibroblast cytotoxicity, dose response, cytotoxicity control, cell-based, fluorescence, Alamar Blue, secondary assay (AID 2327); assay type: functional;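 also: NIH-3T3 mouse fibroblasts cultured with fluconazole at 8 µg/mL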
[8] = fluconazole-exposed Candida albicans growth modulators – fluorescence, retest, confirmation (AID 2467); assay type: functional, cell-based
[9] = blockers of HIV-1 envelope-mediated cell-cell fusion – cherry-pick, dose response (AID 652057); assay type: functional, cell-based

Nonstructural protein 1, sequence (Q194T2 whole entry): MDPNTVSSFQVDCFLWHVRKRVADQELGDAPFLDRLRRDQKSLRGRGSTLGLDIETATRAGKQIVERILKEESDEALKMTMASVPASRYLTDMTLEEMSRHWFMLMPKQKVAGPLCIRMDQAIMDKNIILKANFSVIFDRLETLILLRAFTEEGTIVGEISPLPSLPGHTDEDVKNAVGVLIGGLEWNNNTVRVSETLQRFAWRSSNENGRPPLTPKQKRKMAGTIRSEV

Row | Compound | IC50 [1] | IC50 [2] | IC50 (Caspase-3) | IC50 [4] | EC50 [5] | EC50 [6] | other results
1 | Cc1ccc(-c2cc(-c3cccc(F)c3)[nH]n2)c(O)c1 | 12.2 µM (active) | 6.27 µM (active) | 47.2 µM (active) | 23.8 µM (active) |  |  | EC50 (Streptokinase A): 21.3 µM (active); EC50 [3]: 7.23 µM (active); EC50 (Streptococcus): > 150 µM (not active)
2 | Cc1nnc(O)nc1NCCN(C)C |  |  |  |  | > 55.7 µM (not active) | > 55.7 µM (not active) | 
3 | Cn1cc([N+](=O)[O-])c(C(=O)NCc2ccco2)n1 |  |  |  |  | > 55.7 µM (not active) | > 55.7 µM (not active) | 
4 | O=C(CN1C(=O)COc2ccc(S(=O)(=O)N3CCOCC3)cc21)NCc1ccccn1 |  |  |  |  | > 55.7 µM (not active) | > 55.7 µM (not active) | 
5 | Cc1cc(C(=O)N=Nc2c(O)n(C)c3ccccc23)c(C)o1 | 4.84 µM (active) | 4.99 µM (active) | 2.71 µM (active) | > 100 µM (inactive) |  |  | 
6 | O=[N+]([O-])c1ccc(C2NS(=O)(=O)N=C3CCCCCN32)cc1 (stereo not given) |  |  |  |  | > 55.7 µM (not active) | > 55.7 µM (not active) | 
7 | CCOc1cc(C2NC(S)=NC(C)=C2C(=O)Nc2ccc(OC)cc2)ccc1O (stereo not given) |  |  |  |  | > 55.7 µM (not active) | > 55.7 µM (not active) | 
8 | CN(C)c1ccc(N=Nc2cccc3ccoc23)cc1 | 8.07 µM (active) | 3.81 µM (active) | 14.8 µM (active) | 8.97 µM (active) |  |  | IC50 (Nonstructural protein 1): 39.3 µM (active)
9 | Oc1nc(Nc2ccccc2)sc1/C=C1\C=Nc2ccccc21 | > 100 µM (inactive) | 6.51 µM (active) | 70.5 µM (active) | > 100 µM (inactive) |  |  | EC50 [7]: 17.9 µM (active); EC50 (Streptokinase A): > 150 µM (not active); EC50 [3]: 17.3 µM (active); EC50 (Streptococcus): 26.6 µM (active); EC50 [8]: 1.73 µM (active)
10 | C[C@@H]1CN([C@H](C)CO)C(=O)c2cccc(NS(=O)(=O)c3ccc(F)cc3)c2O[C@@H]1CN(C)Cc1ccc(C(F)(F)F)cc1 |  |  |  |  |  |  | AC50 [9]: < 0.26 µM (active)
11 | Cc1ccc(COc2ccc(/C=N/O)cc2)cc1 | 14.6 µM (active) | 5.63 µM (active) | 17.2 µM (active) | 23.5 µM (active) |  |  | 
